Format in all cases: functional, organism-based
The subject of experiment [1] is Candida albicans. The experiment is described as follows: Antifungal activity against Candida albicans in YPD medium up to 300 uM after 24 hrs by methylene blue assay.
Experiment [2] concerns Candida albicans. Briefly: Antifungal activity against Candida albicans in YPD medium at => 300 uM after 24 hrs by methylene blue assay.
Experiment [3] relates to Candida albicans. The experiment is described as follows: Antifungal activity against stationary phase culture of Candida albicans in GPP medium up to 300 uM after 24 hrs by methylene blue assay.
Experiment [4] relates to Candida albicans. The experiment is described as follows: Antifungal activity against log phase culture of Candida albicans in GPP medium at 40 uM after 24 hrs by methylene blue assay.
In experiment [5] the test system is Candida albicans. The experiment is described as follows: Antifungal activity against log phase culture of Candida albicans in GPP medium at 100 uM after 1 hr by methylene blue assay.
Experiment [6] concerns Candida albicans. Briefly: Antifungal activity against log phase culture of Candida albicans in GPP medium at 300 uM after 4 hrs by methylene blue assay.
Experiment [7] has as its system Candida albicans. Briefly: Antifungal activity against exponential phase culture of Candida albicans in GPP medium at 40 uM after 24 hrs by methylene blue assay.
The test system of experiment [8] is Candida albicans. Briefly: Antifungal activity against exponential phase culture of Candida albicans in GPP medium at 10 to 300 uM at 25 degC after 24 hrs by methylene blue assay.
In experiment [9] the test system is Candida albicans. The experiment is described as follows: Antifungal activity against exponential phase culture of Candida albicans in GPP medium at 10 to 300 uM at 30 degC after 24 hrs by methylene blue assay.
The test system of experiment [10] is Candida albicans. The experiment is described as follows: Antifungal activity against exponential phase culture of Candida albicans in GPP medium at 10 to 300 uM at 37 degC after 24 hrs by methylene blue assay.
Experiment [11] concerns Candida albicans. The experiment is described as follows: Antifungal activity against exponential phase culture of Candida albicans in YPD medium at 10 to 300 uM at 25 degC after 24 hrs by methylene blue assay.
Experiment [12] relates to Candida albicans. Briefly: Antifungal activity against exponential phase culture of Candida albicans in YPD medium at 10 to 300 uM at 30 degC after 24 hrs by methylene blue assay.
In experiment [13] the test system is Candida albicans. The experiment is described as follows: Antifungal activity against exponential phase culture of Candida albicans in YPD medium at 10 to 300 uM at 37 degC after 24 hrs by methylene blue assay.
Experiment [14] deals with Candida albicans. Briefly: Antifungal activity against stationary phase culture of Candida albicans in GPP medium at 10 to 300 uM at 25 degC after 24 hrs by methylene blue assay.
The subject of experiment [15] is Candida albicans. Briefly: Antifungal activity against stationary phase culture of Candida albicans in GPP medium at 10 to 300 uM at 30 degC after 24 hrs by methylene blue assay.
Experiment [16] relates to Candida albicans. Briefly: Antifungal activity against stationary phase culture of Candida albicans in GPP medium at 10 to 300 uM at 37 degC after 24 hrs by methylene blue assay.
The test system of experiment [17] is Candida albicans. Briefly: Antifungal activity against stationary phase culture of Candida albicans in YPD medium at 10 to 300 uM at 25 degC after 24 hrs by methylene blue assay.
Experiment [18] has as its system Candida albicans. The experiment is described as follows: Antifungal activity against stationary phase culture of Candida albicans in YPD medium at 10 to 300 uM at 30 degC after 24 hrs by methylene blue assay.
For experiment [19], the system named is Candida albicans. Briefly: Antifungal activity against stationary phase culture of Candida albicans in YPD medium at 10 to 300 uM at 37 degC after 24 hrs by methylene blue assay.
The test system of experiment [20] is Candida albicans. The experiment is described as follows: Antifungal activity against exponential phase culture of Candida albicans at 10 to 300 uM treated directly to growing cultures measured after 4 hrs by methylene blue assay.
The test system of experiment [21] is Candida albicans. The experiment is described as follows: Antifungal activity against log phase culture of Candida albicans at 10 to 300 uM treated directly to growing cultures measured after 4 hrs by methylene blue assay.

Activity calls are given as the source filed them. The rule behind the calls is not given here.

Turning to `CC(C)=CCC/C(C)=C/CC/C(C)=C/CO`, the result in the experiment on Candida albicans [1], with Candida albicans [3], in the experiment on Candida albicans [8], in the experiment on Candida albicans [9], in the experiment on Candida albicans [10] and with Candida albicans [11] was inactive. The outcome in the experiment on Candida albicans [12], with Candida albicans [13], with Candida albicans [14], with Candida albicans [15], in the experiment on Candida albicans [16] and with Candida albicans [17] was inactive. Also, the result in the experiment on Candida albicans [18] and with Candida albicans [19] was inactive. For the same compound, the outcome with Candida albicans [2], with Candida albicans [4], in the experiment on Candida albicans [5], in the experiment on Candida albicans [6], in the experiment with Candida albicans [7] and in the experiment on Candida albicans [20] was Active. Also, in the experiment with Candida albicans [21], the result was Active.

Values taken from ChEMBL document CHEMBL1212789, “Activity and toxicity of farnesol towards Candida albicans are dependent on growth conditions” (Antimicrob Agents Chemother, 2010).
